The values that follow are results of earlier work, collected in patent US20050228336A1, “Electrically assisted lidocaine and epinephrine delivery device having extended shelf-stability” (priority 2004, published 2005).

For the data set the following is noted: iontophoresis in vitro across human skin.
`CCCNC(C)C(=O)Nc1ccccc1C` (stereo not drawn) [prilocalne]: the “Cumulative delivery compared with lidocaine” value is listed as “slightly greater delivery”. `CCCN(CC)C(CC)C(=O)Nc1c(C)cccc1C` (stereo not drawn) [etidocaine]: the “Cumulative delivery compared with lidocaine” value is “slightly greater delivery”. `CCN(CC)CCOC(=O)c1ccc(N)cc1` [procaine]: the “Cumulative delivery compared with lidocaine” value was “slightly greater delivery”.
